From ChEMBL document CHEMBL5357080, “Redefining Neurodegenerative Treatment: Synergy of KEAP1, PROTACs, and Inflammatory Modulators” (ACS Med Chem Lett, 2024) come the findings set out here.

Molecules are shown by their SMILES.

The target in this test is Bromodomain-containing protein 4 (Homo sapiens) (UniProt O60885). Nature of the test: Induction of degradation of BRD4 in human MDA-MB-468 cells at 0.01 uM measured after 24 to 48 hrs by densitometry analysis relative to control. In kind it is cell-based. The conditions noted are these: time lower […], time upper […].

On to `Cc1sc2c(c1C)C(c1ccc(Cl)cc1)=N[C@@H](CC(=O)NCC(=O)NCCn1nnc(COc3ccc(Cl)c4c3[C@@H](CN3CC5(CC5)CC3=O)N(C(=O)[C@@H]3CCCC[C@]3(C)C(=O)O)CC4)c1C)c1nnc(C)n1-2`, for which the Activity amounted to 75%.
